{
  "source": "paper PMC4982760",
  "about": "“Small-molecule inhibitors identify the RAD52-ssDNA interaction as critical for recovery from replication stress and for survival of BRCA2 deficient cells” (eLife, 2016)",
  "key": {"[1]": {"target": "T1, RAD52-dsDNA interaction (Homo sapiens, UniProt P43351)", "T1 construct": "made in house", "T1 sequence (P43351 1-418)": "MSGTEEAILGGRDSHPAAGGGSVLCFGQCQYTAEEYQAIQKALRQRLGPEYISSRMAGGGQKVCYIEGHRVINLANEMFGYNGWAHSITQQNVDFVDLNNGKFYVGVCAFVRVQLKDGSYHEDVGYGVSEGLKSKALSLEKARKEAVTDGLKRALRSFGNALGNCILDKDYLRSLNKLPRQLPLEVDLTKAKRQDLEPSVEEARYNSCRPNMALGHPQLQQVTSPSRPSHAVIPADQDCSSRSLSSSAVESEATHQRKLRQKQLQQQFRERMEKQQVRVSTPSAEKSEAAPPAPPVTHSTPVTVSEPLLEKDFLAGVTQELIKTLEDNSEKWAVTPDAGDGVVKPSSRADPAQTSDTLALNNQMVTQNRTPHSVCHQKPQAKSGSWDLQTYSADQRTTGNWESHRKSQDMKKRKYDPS", "assay": "FRET-based RAD52-dsDNA binding assay", "conditions": "1 nM dsDNA, 10 nM RAD52"}, "[2]": {"target": "T2, RAD52 (Homo sapiens, UniProt P43351)", "T2 construct": "made in house", "T2 sequence (P43351 1-418)": "T1 sequence (P43351 1-418)", "assay": "WaterLOGSY NMR binding to RAD52", "conditions": "20-40 μM compound, 3.3 μM RAD52", "text": "To confirm that the selected compounds bind RAD52, we employed water-ligand observation with gradient spectroscopy (WaterLOGSY), an NMR technique, which is based on transfer of magnetization from bulk water to the protein-bound compound of interest ([Dalvit et al., 2001], [2000]). In WaterLOGSY spectrum, if a compound binds to a protein, the compound will receive negative nuclear Overhauser effects (NOEs) due to the slow tumbling of the protein-compound complex, leading to a positive WaterLOGSY peak. […] Similarly, the binding of ‘6’to RAD52 is evident from the positive WaterLOGSY peaks that are clearly detected for this compound (Figure 3a).\nCompound binding to RAD52 and RPA proteins was analyzed using water-ligand observation with gradient spectroscopy (WaterLOGSY) NMR experiments ([Dalvit et al., 2001], [2000]). The WaterLOGSY spectra of compounds in the presence of RAD52 or RPA were acquired using a water NOE mixing time of 1 s and a T2 relaxation filter of 50 ms just before data acquisition to suppress the broad signals derived from protein. The protein buffer used in the experiments contains 10 mM Tris-d11, 75 mM KCl, 0.25 mM EDTA, pH 7.5, and 10% D20. All NMR data were acquired on a Bruker Avance II 800 MHz NMR spectrometer equipped with a sensitive cryoprobe and recorded at 25°C. The ^1H chemical shifts were referenced to 2,2-dimethyl-2-silapentane-5-sulfonate (DSS). NMR spectra were processed using NMR Pipe ([Delaglio et al., 1995]) and analysed using NMR View ([Johnson and Blevins, 1994])."}, "[3]": {"target": "T3, RPA-ssDNA interaction (Homo sapiens, UniProt P15927+P27694+P35244)", "T3 construct": "made in house", "T3 sequence (P27694 whole entry)": "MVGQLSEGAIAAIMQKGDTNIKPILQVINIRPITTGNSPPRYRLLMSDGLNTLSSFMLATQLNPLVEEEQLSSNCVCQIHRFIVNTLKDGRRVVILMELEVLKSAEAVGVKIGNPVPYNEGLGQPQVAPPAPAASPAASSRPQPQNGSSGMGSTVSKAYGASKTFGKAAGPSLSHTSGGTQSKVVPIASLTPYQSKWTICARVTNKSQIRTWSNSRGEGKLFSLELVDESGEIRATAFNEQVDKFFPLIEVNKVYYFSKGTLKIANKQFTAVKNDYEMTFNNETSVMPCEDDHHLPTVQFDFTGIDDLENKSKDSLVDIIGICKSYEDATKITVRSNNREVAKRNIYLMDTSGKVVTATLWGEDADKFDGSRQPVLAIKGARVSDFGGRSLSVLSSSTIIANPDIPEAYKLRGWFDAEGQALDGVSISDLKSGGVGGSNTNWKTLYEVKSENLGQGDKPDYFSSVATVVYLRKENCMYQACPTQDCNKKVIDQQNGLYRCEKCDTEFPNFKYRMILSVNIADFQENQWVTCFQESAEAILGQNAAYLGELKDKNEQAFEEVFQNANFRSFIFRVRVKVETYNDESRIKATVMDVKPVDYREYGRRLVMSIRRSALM", "T3 sequence (P15927 whole entry)": "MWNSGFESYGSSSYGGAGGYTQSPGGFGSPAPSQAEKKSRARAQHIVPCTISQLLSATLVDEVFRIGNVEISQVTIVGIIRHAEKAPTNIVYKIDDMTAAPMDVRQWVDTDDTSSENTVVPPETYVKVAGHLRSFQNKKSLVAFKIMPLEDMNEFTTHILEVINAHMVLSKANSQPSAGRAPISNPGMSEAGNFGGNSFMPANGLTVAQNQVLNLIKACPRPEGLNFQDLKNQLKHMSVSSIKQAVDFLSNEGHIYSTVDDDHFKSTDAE", "T3 sequence (P35244 whole entry)": "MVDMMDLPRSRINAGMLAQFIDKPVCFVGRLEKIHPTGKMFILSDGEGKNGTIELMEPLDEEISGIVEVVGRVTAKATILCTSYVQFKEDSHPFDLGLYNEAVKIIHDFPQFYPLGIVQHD", "assay": "FRET titration of the RPA-Cy3-dT30-Cy5 complex", "format": "binding", "conditions": "range of tested concentrations", "text": "In the cell, ssDNA is typically found in complex with Replication protein A (RPA), the major eukaryotic ssDNA-binding protein essential for DNA replication, repair and recombination ([Wold, 1997]; [Oakley and Patrick, 2010]; [Chen and Wold, 2014]). The RPA-ssDNA complex is a physiologically relevant substrate for the RAD52-mediated strand annealing. […] RPA binds ssDNA with high affinity and extends the ssDNA to its contour length. In our assays such an extension manifests as a distinct FRET state of ~0.3, which is readily distinguished from a FRET state of ~0.48 of free Cy3-dT30-Cy5 ssDNA, as well as ~0.63 FRET of the stoichiometric ssDNA-RPA-RAD52 complex (see Figure 2—figure supplement 1 and ([Grimme and Spies, 2011]) for details). […] Both, however, inhibited the RAD52 binding to and wrapping of RPA-coated ssDNA with IC50 values identical to those determined without RPA (Figure 2e and Figure 3e).\nIn all experiments, the FRET values for each data point were corrected for the effects of the compounds on the respective substrate in the absence of RAD52."}, "[4]": {"test_system": "GM01604 cells", "assay": "LIVE/DEAD cell viability assay", "format": "cell-based, human", "conditions": "1 µM compound", "protocol": "GM01604 cells were transfected with siRNAs directed against GFP (Ctrl), or against MUS81 (Qiagen), BRCA2 (Sigma-Aldrich), and RAD52 (Qiagen) 48 hr prior to addition of 1 µM ‘1’. Where indicated, the conditions of pathological replication were induced by treating cells with 2 mM HU and 300 nM UCN01 for 6 hr or by 18 hr treatment with 2 mM HU, in the presence or absence of ‘1’. Viability was evaluated by the LIVE/DEAD assay (Sigma-Aldrich) according to the manufacturer’s instructions. Cell number was counted in randomly chosen fields and expressed as percent of dead cells (number of red nuclear stained cells divided by the total cell number) corrected for the cell loss observed in the population. For each time point, at least 200 cells were counted."}, "[5]": {"test_system": "MUS81", "assay": "Anaphase bridges in aphidicolin-treated cells (MUS81 activity)", "format": "cell-based, human", "conditions": "GM01604, 0.2 µM aphidicolin 24h, increasing concentration of compound", "protocol": "Figure 5. Inhibiting the RAD52-ssDNA interaction interferes with RAD52/MUS81-mediated DSB formation essential for replication fork recovery in check point deficient cells. (a) Representative images showing fields of cells from the comet assay for untreated, as well as from UCN01 (300 nM) and HU (2 mM) treated cells in the presence and absence of ‘1’, ‘6’, and siRAD52. (b) ‘1’ and ‘6’ at 1 or 25 μM recapitulate RAD52 depletion. GM1604 cells, transfected or not with siRNAs against RAD52, were treated as indicated, in the presence or absence of the inhibitor. At the end of treatment, DSBs were analyzed by neutral comet assay. Data are presented as the mean ± SEM from two independent experiments; p values are shown in the graph when differences are statistically significant. (c–d) Inhibitors ‘1’ and ‘6’, respectively decrease the mean tail moment following HU treatment with IC50 values ranging from mid nanomolar to low micromolar. Cells were treated as in (b). Data are from three independent experiments. DOI: http://dx.doi.org/10.7554/eLife.14740.012 Figure 5—figure supplement 1. […] (a) GM01604 wild-type fibroblasts were transfected with CTRL or MUS81 siRNA. Forty eight hours after transfection the fibroblasts were lysed and analysed by WB with the indicated antibodies. […] (c) The presence of anaphase bridges, as shown in the representative images, was scored in DAPI-stained cells. […]"}},
  "data": [
    {"smiles": "Oc1cc(O)c2c(c1)O[C@H](c1cc(O)c(O)c(O)c1)[C@H](O)C2", "note": "[Compound 1, (−)−Epigallocatechin]", "values": [
      {"measurement": "effect on the RAD52-dsDNA interaction", "setting": "[1]", "value": "had no effect on the RAD52-dsDNA interaction"},
      {"measurement": "binding to RAD52 (WaterLOGSY)", "setting": "[2]", "value": "physically interact with RAD52 protein"},
      {"measurement": "effect on the RPA-ssDNA interaction", "setting": "[3]", "value": "neither ‘1’ nor ‘6’ affected the RPA-ssDNA interaction"},
      {"measurement": "cell death", "setting": "[4]; BRCA2-depleted GM01604, after replication stress (HU + UCN01)", "value": "~ 80%"},
      {"measurement": "dead cells", "setting": "[4]; MUS81-depleted GM01604, checkpoint-deficient, HU treated", "value": "~60", "unit": "%"},
      {"measurement": "dead cells", "setting": "[4]; MUS81-depleted GM01604, untreated", "value": "approximately 40%"},
      {"measurement": "effect on MUS81 activity (anaphase bridges)", "setting": "[5]", "value": "does not affect MUS81 activity"}
    ]}
  ]
}
